# Measured values published in patent US8921362B2, “6,7-dialkoxy quinazoline derivatives and methods of treating drug resistant and other tumors” (Natco Pharma Limited, priority 2008, dated 2014).
# What was measured:
# Test in all cases: KinomeScan
# Type in all cases: binding
# Conditions in all cases: read-out: % Ctrl @ 10000 nM
# ABL1(H396P) = target: T1, ABL1(H396P) (Homo sapiens, UniProt P00519, H396P)
# T1 construct: host or cells: E. coli (BL21-derived), T7 phage lysate
# Method: (§1) Kinase assays: Assays were performed as described in Fabian et al. (2005) Nature Biotechnology, vol. 23, p. 329. Kinase-tagged T7 phage strains were grown in parallel in 24 or 96-well blocks in an E. coli host derived from the BL21 strain. E. coli were grown to log-phase and infected with T7 phage from a frozen stock (multiplicity of infection ˜0.1) and incubated with shaking at 32° C. until lysis (−90 minutes). The lysates were centrifuged and filtered to remove cell debris. […] The liganded beads were blocked with excess biotin and washed with blocking buffer (SeaBlock (Pierce), 1% BSA, 0.05% Tween 20, 1 mM DTT) to remove unbound ligand and to reduce non-specific phage binding.
# (§2) Test compounds were prepared as 40× stocks in DMSO and diluted into the aqueous environment. 2.5% DMSO was added to control assays lacking a test compound. All reactions were performed in polystyrene 96-well plates that had been pretreated with blocking buffer in a final volume of 0.04 ml. […] The phage titer in the eluates was measured by quantitative PCR.
# ABL2 = target: T2, ABL2 (Homo sapiens, UniProt P42684)
# T2 construct: host or cells: E. coli (BL21-derived), T7 phage lysate
# T2 sequence (P42684 whole entry): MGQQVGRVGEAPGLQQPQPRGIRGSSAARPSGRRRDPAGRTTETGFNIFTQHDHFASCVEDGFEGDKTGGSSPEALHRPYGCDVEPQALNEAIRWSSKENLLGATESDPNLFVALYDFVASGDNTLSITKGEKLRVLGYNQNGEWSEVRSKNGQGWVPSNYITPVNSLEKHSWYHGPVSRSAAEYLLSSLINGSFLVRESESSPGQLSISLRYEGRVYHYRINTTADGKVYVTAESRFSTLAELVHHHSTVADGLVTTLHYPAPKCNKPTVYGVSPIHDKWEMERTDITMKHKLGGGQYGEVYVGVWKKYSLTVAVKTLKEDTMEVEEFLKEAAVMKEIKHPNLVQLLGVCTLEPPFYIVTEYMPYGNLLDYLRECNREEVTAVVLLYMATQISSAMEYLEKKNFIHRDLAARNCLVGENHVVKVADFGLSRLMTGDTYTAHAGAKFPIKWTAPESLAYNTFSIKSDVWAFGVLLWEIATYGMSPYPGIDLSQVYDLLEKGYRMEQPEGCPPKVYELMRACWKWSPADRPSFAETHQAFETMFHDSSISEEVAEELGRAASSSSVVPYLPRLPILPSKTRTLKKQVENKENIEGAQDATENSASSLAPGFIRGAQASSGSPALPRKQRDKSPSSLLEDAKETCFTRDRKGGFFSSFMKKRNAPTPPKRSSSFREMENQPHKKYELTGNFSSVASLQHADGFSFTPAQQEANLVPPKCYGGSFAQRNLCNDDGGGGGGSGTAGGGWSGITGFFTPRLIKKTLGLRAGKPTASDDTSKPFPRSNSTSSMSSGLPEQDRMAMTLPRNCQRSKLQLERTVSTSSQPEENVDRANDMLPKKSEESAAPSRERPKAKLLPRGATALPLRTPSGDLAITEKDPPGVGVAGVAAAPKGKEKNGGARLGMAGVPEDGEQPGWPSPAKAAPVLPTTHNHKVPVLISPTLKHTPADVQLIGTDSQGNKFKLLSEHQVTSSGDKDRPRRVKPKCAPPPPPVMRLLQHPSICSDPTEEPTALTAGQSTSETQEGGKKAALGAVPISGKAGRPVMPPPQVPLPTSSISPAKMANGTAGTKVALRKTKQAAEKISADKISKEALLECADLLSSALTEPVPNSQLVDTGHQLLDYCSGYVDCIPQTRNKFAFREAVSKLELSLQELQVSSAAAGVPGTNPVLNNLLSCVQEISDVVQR
# Method: as §1, §2
# ACVR2A = target: T3, ACVR2A (Homo sapiens, UniProt P27037)
# T3 construct: host or cells: E. coli (BL21-derived), T7 phage lysate
# T3 sequence (P27037 20-513): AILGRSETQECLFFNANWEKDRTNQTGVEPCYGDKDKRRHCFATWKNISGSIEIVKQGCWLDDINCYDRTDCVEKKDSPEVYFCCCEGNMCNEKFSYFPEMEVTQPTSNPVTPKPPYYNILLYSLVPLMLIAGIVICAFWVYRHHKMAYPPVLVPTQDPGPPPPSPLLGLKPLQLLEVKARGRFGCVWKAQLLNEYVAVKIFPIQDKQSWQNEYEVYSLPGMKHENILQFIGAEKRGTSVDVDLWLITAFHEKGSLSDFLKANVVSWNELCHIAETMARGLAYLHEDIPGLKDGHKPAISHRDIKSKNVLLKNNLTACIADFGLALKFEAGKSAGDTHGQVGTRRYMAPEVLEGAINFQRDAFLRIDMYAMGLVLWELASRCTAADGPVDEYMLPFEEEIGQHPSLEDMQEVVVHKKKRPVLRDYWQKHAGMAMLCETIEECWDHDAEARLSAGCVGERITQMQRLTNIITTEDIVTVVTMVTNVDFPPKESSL
# Method: as §1, §2
# AKT2 = target: T4, AKT2 (Homo sapiens, UniProt P31751)
# T4 construct: host or cells: E. coli (BL21-derived), T7 phage lysate
# T4 sequence (P31751 whole entry): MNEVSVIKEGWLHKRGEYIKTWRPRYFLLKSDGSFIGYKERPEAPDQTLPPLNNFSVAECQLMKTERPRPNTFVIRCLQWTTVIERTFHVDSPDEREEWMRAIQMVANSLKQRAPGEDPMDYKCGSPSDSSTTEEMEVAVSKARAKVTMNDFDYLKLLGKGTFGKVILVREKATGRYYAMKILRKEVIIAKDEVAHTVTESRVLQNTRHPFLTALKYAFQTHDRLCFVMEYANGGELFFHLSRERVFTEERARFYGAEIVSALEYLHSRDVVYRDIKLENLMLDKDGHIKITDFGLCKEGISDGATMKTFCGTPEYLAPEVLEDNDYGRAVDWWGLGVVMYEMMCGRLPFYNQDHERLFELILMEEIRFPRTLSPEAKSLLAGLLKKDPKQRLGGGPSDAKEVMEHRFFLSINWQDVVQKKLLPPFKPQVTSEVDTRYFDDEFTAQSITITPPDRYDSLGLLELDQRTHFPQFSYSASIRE
# Method: as §1, §2
# ASK1 = target: T5, ASK1 (Homo sapiens, UniProt Q99683)
# T5 construct: host or cells: E. coli host derived from BL21
# Method: as §1, §2
# BMPR2 = target: T6, BMPR2 (Homo sapiens, UniProt Q13873)
# T6 construct: host or cells: E. coli host derived from BL21
# Method: as §1, §2
# CDK2 = target: T7, CDK2 (Homo sapiens, UniProt P24941)
# T7 construct: host or cells: T7 phage in E. coli host derived from BL21
# Method: as §1, §2
# CDKL2 = target: T8, CDKL2 (Homo sapiens, UniProt Q92772)
# T8 construct: host or cells: T7 phage in E. coli host derived from BL21
# Method: as §1, §2
# CLK4 = target: T9, CLK4 (Homo sapiens, UniProt Q9HAZ1)
# T9 construct: host or cells: T7 phage in E. coli host derived from BL21
# Method: as §1, §2
# CSF1R = target: T10, CSF1R (Homo sapiens, UniProt P07333)
# T10 construct: host or cells: T7 phage in E. coli host derived from BL21
# Method: as §1, §2
# DAPK2 = target: T11, DAPK2 (Homo sapiens, UniProt Q9UIK4)
# T11 construct: purchased Ambit Biosciences Corp (KinomeScan); host or cells: T7 phage in E. coli host derived from BL21
# T11 sequence (Q9UIK4 whole entry): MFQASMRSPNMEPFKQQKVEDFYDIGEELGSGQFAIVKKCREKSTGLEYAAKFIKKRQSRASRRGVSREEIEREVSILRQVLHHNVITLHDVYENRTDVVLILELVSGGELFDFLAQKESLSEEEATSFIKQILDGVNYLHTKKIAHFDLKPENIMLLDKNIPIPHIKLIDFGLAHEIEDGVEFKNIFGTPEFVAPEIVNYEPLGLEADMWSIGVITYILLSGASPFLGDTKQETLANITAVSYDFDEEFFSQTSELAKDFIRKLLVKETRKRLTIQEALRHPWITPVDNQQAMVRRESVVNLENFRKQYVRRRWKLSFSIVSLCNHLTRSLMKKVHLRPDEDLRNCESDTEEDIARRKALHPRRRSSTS
# Method: as §1, §2
# DCAMKL2 = target: T12, DCAMKL2 (Homo sapiens, UniProt Q8N568)
# T12 construct: purchased Ambit Biosciences Corp (KinomeScan); host or cells: T7 phage in E. coli host derived from BL21
# Method: as §1, §2
# EGFR(L747-T751del, Sins) = target: T13, EGFR(L747-T751del, Sins) (Homo sapiens, UniProt P00533, DEL747-750/T751S)
# T13 construct: purchased Ambit Biosciences Corp; host or cells: T7 phage in E. coli host derived from BL21
# Method: as §1, §2
# EGFR(S752-1759del) = target: T14, EGFR(S752-1759del) (Homo sapiens, UniProt P00533, DEL752-759)
# T14 construct: purchased Ambit Biosciences Corp; host or cells: T7 phage in E. coli host derived from BL21
# Method: as §1, §2
# EPHA1 = target: T15, EPHA1 (Homo sapiens, UniProt P21709)
# T15 construct: purchased Ambit Biosciences Corp; host or cells: T7 phage in E. coli host derived from BL21
# Method: as §1, §2
# FAK = target: T16, FAK (Homo sapiens, UniProt Q05397)
# T16 construct: purchased Ambit Biosciences Corp; host or cells: T7 phage in E. coli host derived from BL21
# Method: as §1, §2
# FLT4 = target: T17, FLT4 (Homo sapiens, UniProt P35916)
# T17 construct: host or cells: T7 phage in E. coli host derived from BL21
# Method: as §1, §2
# [1] = target: T18, JAK2(JH1domain- catalytic) (Homo sapiens, UniProt O60674)
# T18 construct: JAK2(JH1domain- catalytic); host or cells: T7 phage grown in E. coli host derived from BL21
# Method: as §1, §2
# MLCK = target: T19, MLCK (Homo sapiens, UniProt Q32MK0)
# T19 construct: host or cells: T7 phage grown in E. coli host derived from BL21
# Method: as §1, §2
# MYO3B = target: T20, MYO3B (Homo sapiens, UniProt Q8WXR4)
# T20 construct: host or cells: T7 phage grown in E. coli host derived from BL21
# Method: as §1, §2
# NEK9 = target: T21, NEK9 (Homo sapiens, UniProt Q8TD19)
# T21 construct: host or cells: T7 phage grown in E. coli host derived from BL21
# T21 sequence (Q8TD19 whole entry): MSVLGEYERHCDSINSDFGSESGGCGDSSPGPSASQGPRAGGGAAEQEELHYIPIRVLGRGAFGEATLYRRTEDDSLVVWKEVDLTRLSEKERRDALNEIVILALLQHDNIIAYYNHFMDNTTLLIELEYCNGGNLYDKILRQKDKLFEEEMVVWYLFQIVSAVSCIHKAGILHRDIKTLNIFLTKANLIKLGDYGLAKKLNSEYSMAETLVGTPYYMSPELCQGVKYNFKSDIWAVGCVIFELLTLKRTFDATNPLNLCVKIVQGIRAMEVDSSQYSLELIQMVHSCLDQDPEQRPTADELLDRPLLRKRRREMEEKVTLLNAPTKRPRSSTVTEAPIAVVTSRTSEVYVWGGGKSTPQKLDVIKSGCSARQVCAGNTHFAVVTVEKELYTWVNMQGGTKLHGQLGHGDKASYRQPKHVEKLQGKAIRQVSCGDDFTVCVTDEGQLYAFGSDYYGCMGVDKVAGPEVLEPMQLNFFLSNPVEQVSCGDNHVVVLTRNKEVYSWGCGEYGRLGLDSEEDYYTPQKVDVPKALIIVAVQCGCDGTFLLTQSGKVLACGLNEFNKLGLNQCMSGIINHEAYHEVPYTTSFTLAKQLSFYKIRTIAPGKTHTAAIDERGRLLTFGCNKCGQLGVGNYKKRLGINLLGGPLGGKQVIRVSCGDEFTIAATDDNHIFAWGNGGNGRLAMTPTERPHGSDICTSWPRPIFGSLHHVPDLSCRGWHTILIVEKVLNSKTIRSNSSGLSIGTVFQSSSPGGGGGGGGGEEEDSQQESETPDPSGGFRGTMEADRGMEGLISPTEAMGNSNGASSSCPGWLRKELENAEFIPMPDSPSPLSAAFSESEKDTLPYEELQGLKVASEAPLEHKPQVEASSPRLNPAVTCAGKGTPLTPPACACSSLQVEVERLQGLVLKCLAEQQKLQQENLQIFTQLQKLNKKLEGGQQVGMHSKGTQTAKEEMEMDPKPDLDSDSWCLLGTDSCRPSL
# Method: as §1, §2
# PHKG2 = target: T22, PHKG2 (Homo sapiens, UniProt P15735)
# T22 construct: host or cells: E. coli host derived from BL21, infected with T7 phage
# Method: as §1, §2
# PIK3CD = target: T23, PIK3CD (Homo sapiens, UniProt O00329)
# T23 construct: host or cells: T7 phage in E. coli host derived from BL21
# Method: as §1, §2
# PRKCQ = target: T24, PRKCQ (Homo sapiens, UniProt Q04759)
# T24 construct: host or cells: T7 phage in E. coli host derived from BL21
# Method: as §1, §2
# PRKD2 = target: T25, PRKD2 (Homo sapiens, UniProt Q9BZL6)
# T25 construct: host or cells: T7 phage in E. coli host derived from BL21
# Method: as §1, §2
# PRKG2 = target: T26, PRKG2 (Homo sapiens, UniProt Q13237)
# T26 construct: host or cells: T7 phage in E. coli host derived from BL21
# T26 sequence (Q13237 whole entry): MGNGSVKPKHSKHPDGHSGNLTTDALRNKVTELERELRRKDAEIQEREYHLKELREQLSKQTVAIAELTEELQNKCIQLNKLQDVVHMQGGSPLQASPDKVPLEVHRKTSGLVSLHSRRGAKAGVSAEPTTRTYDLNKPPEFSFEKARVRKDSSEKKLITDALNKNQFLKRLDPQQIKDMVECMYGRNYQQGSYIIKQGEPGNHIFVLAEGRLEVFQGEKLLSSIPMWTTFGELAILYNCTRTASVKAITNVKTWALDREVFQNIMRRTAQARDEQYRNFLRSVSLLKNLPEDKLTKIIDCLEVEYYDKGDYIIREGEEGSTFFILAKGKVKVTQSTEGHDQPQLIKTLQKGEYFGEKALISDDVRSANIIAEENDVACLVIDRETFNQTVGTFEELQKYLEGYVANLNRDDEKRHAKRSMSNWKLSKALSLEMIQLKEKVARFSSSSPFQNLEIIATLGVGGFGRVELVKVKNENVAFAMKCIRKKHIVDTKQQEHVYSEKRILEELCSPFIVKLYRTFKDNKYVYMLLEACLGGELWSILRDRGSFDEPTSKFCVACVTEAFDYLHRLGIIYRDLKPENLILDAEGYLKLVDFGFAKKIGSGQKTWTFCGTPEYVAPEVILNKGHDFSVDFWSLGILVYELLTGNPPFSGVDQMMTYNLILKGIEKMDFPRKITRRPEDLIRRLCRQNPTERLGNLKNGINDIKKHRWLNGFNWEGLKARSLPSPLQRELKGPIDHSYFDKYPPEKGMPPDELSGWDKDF
# Method: as §1, §2
# RIPK2 = target: T27, RIPK2 (Homo sapiens, UniProt O43353)
# T27 construct: host or cells: E. coli host derived from BL21, T7 phage display
# Method: as §1, §2
# [2] = target: T28, RPS6KA6(Kin.Dom.-1-N-terminal) (Homo sapiens, UniProt Q9UK32)
# T28 construct: RPS6KA6(Kin.Dom.-1-N-terminal); host or cells: E. coli host derived from BL21, T7 phage display
# Method: as §1, §2
# TEC = target: T29, TEC (Homo sapiens, UniProt P42680)
# T29 construct: host or cells: T7 phage grown in E. coli (BL21-derived)
# T29 sequence (P42680 whole entry): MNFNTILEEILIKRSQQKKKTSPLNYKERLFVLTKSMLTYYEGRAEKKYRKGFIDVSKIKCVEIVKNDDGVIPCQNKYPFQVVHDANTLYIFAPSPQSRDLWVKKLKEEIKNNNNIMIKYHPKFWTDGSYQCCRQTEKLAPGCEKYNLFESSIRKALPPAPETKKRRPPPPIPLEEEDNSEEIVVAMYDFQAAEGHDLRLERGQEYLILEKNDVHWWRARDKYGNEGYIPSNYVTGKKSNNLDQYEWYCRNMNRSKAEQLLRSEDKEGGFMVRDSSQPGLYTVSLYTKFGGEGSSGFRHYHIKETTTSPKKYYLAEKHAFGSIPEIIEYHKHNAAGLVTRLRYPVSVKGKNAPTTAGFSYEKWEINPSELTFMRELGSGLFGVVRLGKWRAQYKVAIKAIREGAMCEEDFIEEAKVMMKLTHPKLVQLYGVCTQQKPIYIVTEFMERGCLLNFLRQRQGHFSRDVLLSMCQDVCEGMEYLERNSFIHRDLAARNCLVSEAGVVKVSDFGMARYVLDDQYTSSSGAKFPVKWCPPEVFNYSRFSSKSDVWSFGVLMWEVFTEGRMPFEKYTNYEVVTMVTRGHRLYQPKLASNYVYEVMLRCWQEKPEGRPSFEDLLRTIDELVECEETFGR
# Method: as §1, §2
# TLK2 = target: T30, TLK2 (Homo sapiens, UniProt Q86UE8)
# T30 construct: host or cells: E. coli host derived from BL21, T7 phage
# Method: as §1, §2
# WEE2 = target: T31, WEE2 (Homo sapiens, UniProt P0C1S8)
# T31 construct: host or cells: E. coli host derived from BL21, T7 phage
# Method: as §1, §2
# YANK3 = target: T32, YANK3 (Homo sapiens, UniProt Q86UX6)
# T32 construct: host or cells: E. coli host derived from BL21, T7 phage
# Method: as §1, §2
# p38-delta = target: T33, p38-delta (Homo sapiens, UniProt O15264)
# T33 construct: host or cells: E. coli host derived from BL21, infected with T7 phage
# Method: as §1, §2
smiles,measurement,setting,value
"C#Cc1cccc(Nc2ncnc3cc(OC)c(OCCCN4CCOCC4)cc23)c1 [NRC-2694, N-(3-ethynylphenyl)-7-methoxy-6-[3-(4-morpholinyl)propoxy]-4-quinazolinamine]",remaining binding at 10 µM,ABL1(H396P),34%
same,remaining binding at 10 µM,ABL2,43%
same,remaining binding at 10 µM,ACVR2A,92%
same,remaining binding at 10 µM,AKT2,100%
same,remaining binding at 10 µM,ASK1,100%
same,remaining binding at 10 µM,BMPR2,100%
same,remaining binding at 10 µM,CDK2,94%
same,remaining binding at 10 µM,CDKL2,67%
same,remaining binding at 10 µM,CLK4,17%
same,remaining binding at 10 µM,CSF1R,50%
same,remaining binding at 10 µM,DAPK2,61%
same,remaining binding at 10 µM,DCAMKL2,69%
same,remaining binding at 10 µM,"EGFR(L747-T751del, Sins)",0%
same,remaining binding at 10 µM,EGFR(S752-1759del),0%
same,remaining binding at 10 µM,EPHA1,55%
same,remaining binding at 10 µM,FAK,85%
same,remaining binding at 10 µM,FLT4,66%
same,remaining binding at 10 µM,[1],38%
same,remaining binding at 10 µM,MLCK,77%
same,remaining binding at 10 µM,MYO3B,100%
same,remaining binding at 10 µM,NEK9,85%
same,remaining binding at 10 µM,PHKG2,59%
same,remaining binding at 10 µM,PIK3CD,89%
same,remaining binding at 10 µM,PRKCQ,83%
same,remaining binding at 10 µM,PRKD2,0.4%
same,remaining binding at 10 µM,PRKG2,40%
same,remaining binding at 10 µM,RIPK2,2.4%
same,remaining binding at 10 µM,[2],94%
same,remaining binding at 10 µM,TEC,90%
same,remaining binding at 10 µM,TLK2,82%
same,remaining binding at 10 µM,WEE2,53%
same,remaining binding at 10 µM,YANK3,100%
same,remaining binding at 10 µM,p38-delta,100%
